The results in this text go back to ChEMBL document CHEMBL5143505, “Emerging Approaches to Overcome Acquired Drug Resistance Obstacles to Osimertinib in Non-Small-Cell Lung Cancer” (J Med Chem, 2022).

The species named for one series is Homo sapiens. Description: Selectivity ratio of IC50 for EGFR Del19/T790M/C797S triple mutant (unknown origin) to wild type EGFR (unknown origin).
Series [1] is described as follows: Half life in Ba/F3 EGFR cells xenografted nude mouse liver microsomes. Format: ADME. (In general: Liver microsomes are vesicles of endoplasmic reticulum, rich in cytochrome P450 enzymes.)
Series [2] in a line: Inhibition of p-EGFR Del19/T790M/C797S triple mutant in mouse BaF3 cells. It counts as cell-based.
Series [3] deals with T1, Epidermal growth factor receptor (Homo sapiens, UniProt P00533, L858R/T790M). Description: Inhibition of EGFR L858R/T790M double mutant (unknown origin).
T1 sequence (P00533 25-1210 T790M/L858R limits assumed): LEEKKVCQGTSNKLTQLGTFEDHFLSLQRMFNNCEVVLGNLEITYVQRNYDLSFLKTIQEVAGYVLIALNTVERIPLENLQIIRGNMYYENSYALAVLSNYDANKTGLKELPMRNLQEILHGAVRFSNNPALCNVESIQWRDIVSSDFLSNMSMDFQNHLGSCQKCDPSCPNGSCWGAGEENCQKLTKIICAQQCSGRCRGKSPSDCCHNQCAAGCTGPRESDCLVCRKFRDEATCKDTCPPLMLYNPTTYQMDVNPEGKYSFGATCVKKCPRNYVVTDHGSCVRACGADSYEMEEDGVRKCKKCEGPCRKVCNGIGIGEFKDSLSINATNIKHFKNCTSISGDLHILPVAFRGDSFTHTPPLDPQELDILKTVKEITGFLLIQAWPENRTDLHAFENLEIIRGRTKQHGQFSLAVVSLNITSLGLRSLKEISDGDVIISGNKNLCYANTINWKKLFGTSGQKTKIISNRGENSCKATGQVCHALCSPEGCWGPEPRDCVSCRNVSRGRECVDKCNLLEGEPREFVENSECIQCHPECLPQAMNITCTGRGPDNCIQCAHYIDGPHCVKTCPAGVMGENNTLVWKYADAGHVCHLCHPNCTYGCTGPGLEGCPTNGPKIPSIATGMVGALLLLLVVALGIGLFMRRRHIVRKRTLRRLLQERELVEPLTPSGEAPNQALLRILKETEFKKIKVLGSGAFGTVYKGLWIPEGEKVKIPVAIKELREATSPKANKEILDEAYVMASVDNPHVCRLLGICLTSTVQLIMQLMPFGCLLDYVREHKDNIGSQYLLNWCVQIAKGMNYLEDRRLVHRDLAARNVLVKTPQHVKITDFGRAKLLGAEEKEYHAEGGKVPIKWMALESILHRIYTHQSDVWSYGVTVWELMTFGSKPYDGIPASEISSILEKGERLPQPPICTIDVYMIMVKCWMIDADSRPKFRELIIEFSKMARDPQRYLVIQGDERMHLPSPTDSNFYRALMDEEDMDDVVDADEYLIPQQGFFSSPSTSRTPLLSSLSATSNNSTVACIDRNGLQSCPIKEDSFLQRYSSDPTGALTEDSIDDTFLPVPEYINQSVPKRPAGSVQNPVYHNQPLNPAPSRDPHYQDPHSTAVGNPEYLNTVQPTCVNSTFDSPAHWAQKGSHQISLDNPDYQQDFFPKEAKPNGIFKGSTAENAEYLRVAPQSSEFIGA
A short description of series [4]: Inhibition of EGFR L858R/T790M/C797S triple mutant (unknown origin) in mouse BaF3 cells. Format: cell-based.
The target in series [5] is Epidermal growth factor receptor (Homo sapiens, UniProt P00533, C797S/EX19DEL/T790M). Description: Inhibition of EGFR Del19/T790M/C797S triple mutant (unknown origin).
Epidermal growth factor receptor (Homo sapiens, UniProt P00533, C797S/EX19DEL/T790M), sequence (P00533 whole entry, looked up, stated change not applied): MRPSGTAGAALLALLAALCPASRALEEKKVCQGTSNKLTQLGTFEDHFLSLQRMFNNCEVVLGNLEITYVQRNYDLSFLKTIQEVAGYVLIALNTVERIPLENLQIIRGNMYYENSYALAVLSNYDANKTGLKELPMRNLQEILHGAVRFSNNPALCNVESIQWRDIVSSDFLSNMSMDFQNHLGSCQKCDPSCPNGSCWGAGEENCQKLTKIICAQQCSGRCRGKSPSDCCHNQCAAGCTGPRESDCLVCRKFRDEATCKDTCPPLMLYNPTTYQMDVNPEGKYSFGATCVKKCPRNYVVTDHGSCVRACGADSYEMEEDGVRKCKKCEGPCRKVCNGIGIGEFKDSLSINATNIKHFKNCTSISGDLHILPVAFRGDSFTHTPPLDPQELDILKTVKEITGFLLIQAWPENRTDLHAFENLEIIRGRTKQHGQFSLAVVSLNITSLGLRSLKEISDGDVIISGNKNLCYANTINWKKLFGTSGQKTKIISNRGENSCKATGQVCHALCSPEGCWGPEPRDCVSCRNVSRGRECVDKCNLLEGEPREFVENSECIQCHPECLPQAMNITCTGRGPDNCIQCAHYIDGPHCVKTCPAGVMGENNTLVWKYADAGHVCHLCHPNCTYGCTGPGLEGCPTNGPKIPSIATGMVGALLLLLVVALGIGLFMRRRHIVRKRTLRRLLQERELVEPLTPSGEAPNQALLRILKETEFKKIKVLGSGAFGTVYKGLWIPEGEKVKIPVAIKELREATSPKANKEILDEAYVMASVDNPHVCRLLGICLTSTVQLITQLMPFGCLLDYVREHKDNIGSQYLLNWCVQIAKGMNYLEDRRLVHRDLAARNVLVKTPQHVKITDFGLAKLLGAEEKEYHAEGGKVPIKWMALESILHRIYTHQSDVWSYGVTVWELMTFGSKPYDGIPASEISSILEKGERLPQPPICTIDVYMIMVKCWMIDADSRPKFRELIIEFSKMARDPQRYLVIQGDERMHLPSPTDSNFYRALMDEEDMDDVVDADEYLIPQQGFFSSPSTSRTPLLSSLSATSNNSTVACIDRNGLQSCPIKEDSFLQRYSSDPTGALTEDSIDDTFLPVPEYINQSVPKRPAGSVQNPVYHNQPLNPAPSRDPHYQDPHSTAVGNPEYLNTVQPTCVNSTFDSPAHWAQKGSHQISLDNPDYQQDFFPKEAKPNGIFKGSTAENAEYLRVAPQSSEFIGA
Series [6] deals with Epidermal growth factor receptor (Homo sapiens, UniProt P00533). Description: Inhibition of wild type EGFR (unknown origin).
Epidermal growth factor receptor (Homo sapiens, UniProt P00533), sequence (P00533 whole entry): as the sequence (P00533 whole entry, looked up, stated change not applied) above
The nature of series [7]: Antiproliferative against in mouse Ba/F3 EGFR-Del19/T790M/C797S cells. Format: functional, cell-based.
Series [8] has as its target T2, Epidermal growth factor receptor (Homo sapiens, UniProt P00533, C797S/L858R/T790M). Description: Inhibition of EGFR L858R/T790M/C797S triple mutant (unknown origin).
Series [9] can be described thus: Antiproliferative against in mouse Ba/F3 EGFR-T790M/C797S/L858R cells. Format: functional, cell-based.
The target of series [10] is T2, Epidermal growth factor receptor. Description: Inhibition of EGFR L858R/T790M/C797S triple mutant (unknown origin) expressed in mouse BaF3 cells. It counts as cell-based.
Series [11] concerns BaF3. Description: cells. The following applies: Mus musculus.
The subject of series [12] is BaF3. The series can be described thus: Antiproliferative against in mouse BaF3 cells harbouring Del19/T790M/C797S triple mutant at 100 nM relative to control. Format: functional.
The target of series [13] is Epidermal growth factor receptor (Homo sapiens, UniProt P00533, L858R). The series can be described thus: Inhibition of EGFR L858R mutant (unknown origin).
The next series concerns NCI-H1975. Description: Growth inhibition of human NCI-H1975 cells. Format: functional, cell-based.
Series [14] deals with BaF3. The series can be described thus: Antiproliferative against in mouse BaF3 EFGR Del19/T790M/C797S cell. Format: functional, cell-based.
Series [15] concerns the target T2, Epidermal growth factor receptor. The series can be described thus: Inhibition of EGFR L858R/T790M/C797S triple mutant (unknown origin) by HTRF method. On the technique in general: Time-resolved FRET reads energy transfer from a long-lived donor to a nearby acceptor.
Series [16] in a line: Oral bioavailability in mouse relative to control. Format: ADME, organism-based. The conditions noted are these: in vivo.
A short description of series [17]: Oral bioavailability in rat relative to control. It counts as ADME, organism-based. The following applies: in vivo.
Series [18] concerns the target T2, Epidermal growth factor receptor. Description: Inhibition of EGFR L858R/T790M/C797S triple mutant (unknown origin) in human NCI-H1975 cell. It counts as cell-based.
For series [19], the target named is T1, Epidermal growth factor receptor. The series can be described thus: Inhibition of EGFR L858R/T790M double mutant (unknown origin) in human NCI-H1975 cell. It counts as cell-based.

T2 sequence (P00533 25-1210 T790M/C797S/L858R limits assumed): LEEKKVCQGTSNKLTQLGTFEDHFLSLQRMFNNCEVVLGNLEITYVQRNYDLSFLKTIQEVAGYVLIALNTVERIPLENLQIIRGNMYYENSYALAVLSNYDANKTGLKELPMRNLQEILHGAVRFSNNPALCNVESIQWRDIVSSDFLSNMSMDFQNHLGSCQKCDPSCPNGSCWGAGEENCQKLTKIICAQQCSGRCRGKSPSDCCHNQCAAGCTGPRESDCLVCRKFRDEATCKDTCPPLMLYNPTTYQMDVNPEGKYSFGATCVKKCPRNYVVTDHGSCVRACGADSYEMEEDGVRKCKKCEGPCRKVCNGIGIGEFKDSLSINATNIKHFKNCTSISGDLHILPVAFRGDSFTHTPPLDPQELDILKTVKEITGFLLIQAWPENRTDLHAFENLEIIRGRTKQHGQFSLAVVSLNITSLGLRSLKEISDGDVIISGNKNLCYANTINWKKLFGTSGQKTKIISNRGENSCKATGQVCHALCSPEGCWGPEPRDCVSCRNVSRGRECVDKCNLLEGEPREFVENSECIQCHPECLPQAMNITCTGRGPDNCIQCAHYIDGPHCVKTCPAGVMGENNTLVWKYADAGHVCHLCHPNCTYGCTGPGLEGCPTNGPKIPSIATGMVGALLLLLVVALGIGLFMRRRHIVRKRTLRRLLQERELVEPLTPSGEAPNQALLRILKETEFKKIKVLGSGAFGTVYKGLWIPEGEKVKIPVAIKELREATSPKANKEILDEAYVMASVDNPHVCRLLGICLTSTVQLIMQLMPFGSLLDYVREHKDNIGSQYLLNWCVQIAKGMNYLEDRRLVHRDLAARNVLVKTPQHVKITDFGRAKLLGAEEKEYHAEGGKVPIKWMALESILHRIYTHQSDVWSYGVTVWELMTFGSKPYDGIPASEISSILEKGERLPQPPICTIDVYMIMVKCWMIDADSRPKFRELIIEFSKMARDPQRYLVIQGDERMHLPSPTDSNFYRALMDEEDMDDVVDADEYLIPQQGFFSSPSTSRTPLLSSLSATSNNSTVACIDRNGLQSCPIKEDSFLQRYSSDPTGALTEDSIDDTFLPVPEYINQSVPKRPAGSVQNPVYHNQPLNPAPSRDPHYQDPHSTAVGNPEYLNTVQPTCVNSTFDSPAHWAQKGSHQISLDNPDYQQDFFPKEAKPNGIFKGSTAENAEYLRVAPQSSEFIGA

As for `Oc1ccccc1-c1nc(NCc2cccnc2)c2ccccc2n1`, the Ratio IC50 in the series filed under Homo sapiens was determined as 163.
In series [1], `COc1cc(N2CCC(N3CCN(C)CC3)CC2)c(C)cc1Nc1ncc(Br)c(Nc2ccc3nccnc3c2P(C)(C)=O)n1` showed a half-life of 10 h.
For `Cc1cc2cc(n1)-c1cnn(C)c1OCCC[C@@H](C)CN1/C(=N/C2=O)Nc2ccc(CN3CCN(C)CC3)cc21`, the IC50 in [2] amounted to 0.6 nM.
In series [3], `O=C(Nc1nccs1)C(c1ccccc1)N1Cc2ccc(-c3ccc4[nH]ccc4c3)cc2C1=O` (configuration not stated) showed an IC50 of 15 nM.
For `CCC(=O)N[C@H]1CC[C@@H](N2C(=O)N(c3ccccc3Cl)Cc3cnc(Nc4ccc(N5CCN(C)CC5)c(C)c4)nc32)CC1`, the IC50 in [4] was 210 nM.
For `N#Cc1ccc(O)c(-c2nc(NCc3cccnc3)c3ccccc3n2)c1`, the figures for the IC50 in series [5] and in [6] were 23 nM and 50000 nM, respectively.
With `Cc1cc(Nc2ncc(Cl)c(Nc3ccccc3P(C)(C)=O)n2)ccc1N1CCC2(CC1)CN(C)C2`, the IC50 in [7] and in series [2] was not above 100 nM each time.
`OCCc1nc(-c2ccc(F)cc2)c(-c2ccnc3[nH]c(-c4ccccc4)cc23)[nH]1` showed an IC50 in series [6] not above 0.3 nM.
For `CN1CCN(c2ccc(Nc3ncc4nc(Nc5ccccc5)n([C@H]5CCN(S(=O)(=O)C6CC6)C5)c4n3)cc2)CC1`, the IC50 in series [8] was 18 nM.
Take `N#Cc1ccc(O)c(-c2nc(NCc3cnccn3)c3ccccc3n2)c1`: the IC50 was 17.9 nM in series [5] and not below 50000 nM in series [6]. For the same compound, the Ratio IC50 in the series filed under Homo sapiens was 1000.
With `CN1CC2(CCN(c3ccc(Nc4ncc(Cl)c(Nc5ccccc5P(C)(C)=O)n4)cc3Br)CC2)C1`, the IC50 in [7] and in [2] was not above 100 nM in each case.
Turning to `C=CC(=O)Nc1cc(Nc2ncc(C(=O)OC(C)C)c(-c3cc4ccccc4n3C3CC3)n2)c(OCC(F)(F)F)nc1N(C)CCN(C)C`, the IC50 in [7] was found to be 10 nM. This lies in the double-digit nanomolar range.
Turning to `C=CC(=O)Nc1cc(Nc2nccc(-c3cn(C)c4ccccc34)n2)c(OC)cc1N(C)CCN(C)C` [OSIMERTINIB], the IC50 in series [9] amounted to 1080 nM; in [7], 730 nM.
As to `CCC(=O)N1CCC[C@@H](N2CC(c3cccc(F)c3Cl)=C(C)c3cnc(Nc4ccc(N5CCN(C)CC5)c(C)c4)nc32)C1`, the IC50 in [10] is 662 nM; in [6], not below 1000 nM; in [8] it was 27.5 nM.
`C=CC(=O)Nc1cc(Nc2ncc(C(=O)OC(C)C)c(-c3cc4ccccc4n3C)n2)c(OCC(F)(F)F)nc1N(C)CCN(C)C` registered an IC50 in [7] of 9 nM.
For `CN1CCN(c2ccc(Nc3ncc4nc(Nc5ccc(F)cc5)n([C@H]5CCN(S(=O)(=O)C6CC6)C5)c4n3)cc2)CC1`, the IC50 in [8] worked out at 22 nM. This lies in the double-digit nanomolar range.
As to `COC(=O)c1ccc(O)c(-c2nc(NCc3cccnc3)c3ccccc3n2)c1`, the IC50 in series [6] was not below 50000 nM.
In the series with BaF3 [11], `COc1cc(N2CCC(N3CCN(C)CC3)CC2)ccc1Nc1ncc(Cl)c(Nc2ccccc2P(C)(C)=O)n1` [BRIGATINIB] had an IC50 of 30 nM. In the series with BaF3 [12], the inhibition at 0.1 µM came out at 50%.
The compound `Oc1ccc(-c2nc(-c3ccnc4[nH]c(-c5ccccc5)cc34)c(-c3ccc(F)cc3)[nH]2)cc1` yielded a concentration for half-maximal inhibition (IC50) in series [6] of 1000 nM.
For `CSc1nc(-c2ccc(F)cc2)c(-c2ccnc3[nH]c(-c4ccccc4)cc23)[nH]1`, the IC50 in series [6] was 287 nM.
The compound `CN1CCN(c2ccc(Nc3ncc4nc(Nc5ccccc5)n([C@@H]5CCN(S(=O)(=O)C6CC6)C5)c4n3)cc2)CC1` yielded an IC50 in [8] of 40 nM.
In turn, `OCCCc1nc(-c2ccc(F)cc2)c(-c2ccnc3[nH]c(-c4ccccc4)cc23)[nH]1` yielded an IC50 in [6] not above 0.2 nM.
For `CC(C)(C)n1cc(-c2cncc3ccccc23)c2c(N)ncnc21`, the figures for the IC50 in series [10], in [6] and in [8] were 5420 nM, 1620 nM and 53 nM, respectively.
With `Cn1cc(-c2cc(C(=O)/N=c3\[nH]c4ccccc4n3[C@H]3CC[C@H](O)CC3)ccn2)cn1`, the half-maximal inhibitory concentration (IC50) amounted to 12 nM in series [5]; 48.2 nM in series [9]; 540 nM in [6]; 48.2 nM in series [8]; 12 nM in series [7].
Consider `OCCCCc1nc(-c2ccc(F)cc2)c(-c2ccnc3[nH]c(-c4ccccc4)cc23)[nH]1`, for which, in series [6], the IC50 is not above 0.3 nM.
As for `CN(C)CCOc1ccc(Nc2ncc3nc(Sc4ccc(F)cc4)n(C4CCOCC4)c3n2)cc1`, the half-inhibitory concentration (IC50) in series [13] turned out to be 1.2 nM.
Consider `CCc1cc(Nc2ncc(Br)c(Nc3ccc4nccnc4c3P(C)(C)=O)n2)c(OC)cc1N1CCC(N2CCN(C)CC2)CC1`, for which the 50% inhibitory concentration (IC50) is 0.212 nM in [5] and 9 nM in series [7]. Moreover, the half-life in series [1] was 20.5 h.
In [7], `COc1cc2c(Nc3ccc(NC(=O)C(c4cc(F)ccc4F)N4Cc5ccccc5C4=O)cc3F)ncnc2cc1OCC1CCN(C)CC1` (configuration not stated) came in with an IC50 of 3.54 nM.
On to `O=C1c2cc(F)ccc2Nc2ccccc2N1Cc1ccccc1`, for which the results for the concentration for half-maximal inhibition (IC50) in series [6] and in series [8] were more than 1000 nM and 52 nM, respectively.
On to `CN(C)C1CCN(c2ccc(Nc3cc4c(N5CCC(CO)CC5)nc(Nc5ccc(F)cc5)nc4cn3)nc2)CC1`, for which the values for the IC50 (in series [8]; with NCI-H1975) were 662 nM and 400 nM, respectively.
Compound `COc1cc(N(C)CCN(C)C)ccc1Nc1nccc(-c2cn(CCCO)c3ccccc23)n1` had an IC50 in series [8] of 8.5 nM.
As for `O=C(Nc1nccs1)C(c1ncn2c1CCC2)N1Cc2c(F)cc(C#Cc3ccc(CN4CCC(CO)CC4)cc3)cc2C1=O` (configuration not stated), in series [8], the IC50 was 5 nM.
`CCC(=O)N[C@H]1CC[C@H](n2c(=O)c(-c3ccccc3Cl)cc3ccc(Nc4ccc(N5CCN(C)CC5)c(C)c4)cc32)CC1` registered an IC50 in series [8] of 38.1 nM.
In the case of `CC(C)(O)Cn1/c(=N/C(=O)c2cc(F)cc(-c3cccnc3)c2)[nH]c2ccccc21`, the half-maximal inhibitory concentration (IC50) is 250 nM in the series on BaF3 [14] and 790 nM in [2].
For the compound `N#Cc1ccc(O)c(-c2nc(NCc3ncccn3)c3ccccc3n2)c1`, the IC50 was found to be 630 nM in [15], 1200 nM in series [18] and 3300 nM in series [19]. Besides, the bioavailability in series [16] and in [17] was 18.6% throughout.
In series [8], `CC(=O)N[C@H]1CC[C@H](n2c(=O)c(-c3ccccc3Cl)cc3ccc(Nc4ccc(N5CCN(C)CC5)c(C)c4)cc32)CC1` registered a half-maximal inhibitory concentration (IC50) of 47.8 nM.
As for `C=C(C)c1cnc(Nc2ccc(N3CCC4(CC3)CN(C)C4)cc2)nc1Nc1ccccc1P(C)(C)=O`, the IC50 in series [7] and in series [2] was not above 100 nM each time.

As usually defined, the half-life is the time in which the quantity being followed falls by half. High values mean slow loss, low ones fast loss. For orientation: IC50 means the concentration at which inhibition is half-maximal. A word on the inhibition: it is the share of the control response that was lost under treatment. A low value points to little suppression. As a reminder, the bioavailability is dose-corrected exposure relative to a reference, in per cent. A higher bioavailability goes with much systemic uptake.
